Experimental data taken from US7605272B2, “IGF-1R inhibitor” (Kyowa Hakko Kirin Co., Ltd., priority 2005, dated 2009).
Where two headings read alike, the source gives them in different places.

Experiments:
[1] = system: NCI-H929; assay: Cytostatic activity on human multiple myeloma cell line NCI-H929 (WST-1); format: cell-based; details: for inhibition at 1 µM / inhibition at 10 µM: Homo sapiens, NCI-H929, 72 h; for inhibition at 1 µM: read-out: cytostatic rate (%) H929 (1 μmol/L); for inhibition at 10 µM: 10 μmol/L, read-out: cytostatic rate (%) H929 (10 μmol/L)
Method: (§1) The cytostatic rates of a test compound on human multiple myeloma cell lines NCI-H929 and KMS-11, were determined in the following manner.
(§2) For culturing NCI-H929, Roswell Park Memorial Institute's Medium (RPMI) 1640 (Gibco, Catalog No. 11875-093) containing 15% fetal bovine serum (Gibco, Catalog No. 10099-141), 1 mmol/L sodium pyruvate (Gibco, Catalog No. 11360-070), 10 mmol/L HEPES (Gibco, Catalog No. 15630-80), 4.5 g/L glucose (Sigma, Catalog No. G8769), 0.05 mmol/L 2-mercaptethanol (Nacalai Tesque, Catalog No. 21418-42) and penicillin/streptomycin (1:1) (Gibco, Catalog No. 15140-122) was used. For culturing KMS-11 cell, RPMI 1640 medium containing 10% fetal bovine serum and penicillin/streptomycin (1:1) was used. Each 80 μL of the NCI-H929 cell having a concentration of 1×10^5 cells/mL (or the KMS-11 cell having a concentration of 7.5×10^4 cells/mL) was inoculated to wells of a TC MICROWELL 96U plate (Nalge Nunc International, Catalog No. 163320) and was cultured in a 5% carbon dioxide gas incubator at 37° C. for 24 hours. Each 20 μL of a solution of the test compound in dimethyl sulfoxide (DMSO) which was prepared to make the final concentration to 1 μmol/L or 10 μmol/L, was added to each well. Each 20 μL of DMSO was added to the control well and the blank well to a final concentration of 0.1%. After adding the test compound, the cells were incubated in a 5% carbon dioxide gas incubator at 37° C. for 72 hours except for the blank well. After adding 20 μL of WST-1 reagent {4-[3-(4-iodophenyl)-2-(4-nitrophenyl)-2H-5-tetrazolio]-1,3-benzene disulfonate sodium salt} (Roche Diagnostics K.K., Catalog No. 1644807), which was diluted to 50% by RPMI medium to each well, the cells were further incubated at 37° C. for 2 hours. Then, the absorbances at 450 nm (reference wavelength: 690 nm) were measured with a microplate spectrophotometer SPECTRA max 340PC (Molecular Devices Corporation). The relative growth (%) of a well to which the test compound had been added and cultured for 72 hours was determined while setting the absorbance of a well to which not the test compound but DMSO alone had been added and cultured for 72 hours (control) as 100% and that of a well where the drugs are added (blank) as 0%. The cytostatic rate (%) of the test compound was determined by subtracting the calculated relative growth from 100.

[2] = target: T1, IGF-1R (Homo sapiens, UniProt P08069); assay: IGF-1R inhibitory activity (kinase reaction, time-resolved fluoroimmunoassay); format: biochemical; details: test compound 10 μmol/L
T1 construct: purchased Upstate Co. 14-465
How it was run: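 Compounds were tested at a single 10 μmol/L concentration. Each was incubated with recombinant IGF-1R (200 μg/L), 10 mmol/L ATP, MgCl2/MnCl2 and Na3VO4 (pH 7.5) on immobilized poly(Glu-Tyr) peptide for 30 min at 24° C. Eu-anti-phosphotyrosine time-resolved fluorescence (340/615 nm) gave relative activity against no-compound and no-enzyme wells, reported as % inhibition.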

[3] = system: KMS-11; assay: Cytostatic activity on human multiple myeloma cell line KMS-11 (WST-1); format: cell-based; details: for inhibition at 1 µM / inhibition at 10 µM: Homo sapiens, KMS-11, 72 h; for inhibition at 1 µM: read-out: cytostatic rate (%) KMS-11 (1 μmol/L); for inhibition at 10 µM: 10 μmol/L, read-out: cytostatic rate (%) KMS-11 (10 μmol/L)
Method: as §1, §2

[4] = IGF-1R active recombinant enzyme
[5] = NCI-H929 cells, test compound 1 μmol/L, WST-1
[6] = KMS-11 cells, test compound 1 μmol/L, WST-1

T1 sequence (P08069 959-1367 limits assumed): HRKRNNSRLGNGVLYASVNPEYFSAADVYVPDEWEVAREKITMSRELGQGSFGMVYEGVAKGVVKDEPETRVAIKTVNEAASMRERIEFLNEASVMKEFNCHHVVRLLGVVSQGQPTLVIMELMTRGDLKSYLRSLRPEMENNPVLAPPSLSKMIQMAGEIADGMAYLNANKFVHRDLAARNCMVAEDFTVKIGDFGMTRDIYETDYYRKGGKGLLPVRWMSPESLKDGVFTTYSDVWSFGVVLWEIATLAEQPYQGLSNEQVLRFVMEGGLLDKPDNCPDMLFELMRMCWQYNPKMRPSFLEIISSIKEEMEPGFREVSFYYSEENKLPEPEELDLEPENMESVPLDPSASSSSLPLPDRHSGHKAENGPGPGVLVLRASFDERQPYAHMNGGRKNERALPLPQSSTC

Compound | inhibition at 1 µM ([1]; 1 μmol/L, 72 hours) [%] | inhibition at 10 µM [2, 4] [%] | inhibition at 1 µM ([3]; 1 μmol/L, 72 hours) [%] | inhibition at 10 µM ([1]; 72 hours) [%] | inhibition at 10 µM ([3]; 72 hours) [%] | also measured
COCCN1CCN(Cc2ccc(/C=C/c3n[nH]c4ccccc34)c(NC(=O)c3sccc3C)c2)CC1 [Compound 271, (E)-N-{2-[2-(1H-indazol-3-yl)vinyl]-5-[4-(2-methoxyethyl)piperazin-1-ylmethyl]phenyl}-3-methylthiophene-2-carboxamide] | 119 | 102 | 123 | – | – | –
CN(C)c1ccc(/C=C/c2n[nH]c3ccccc23)c(NC(=O)c2cccn2C)c1 [Compound 107, (E)-N-{5-dimethylamino-2-[2-(1H-indazol-3-yl)vinyl]phenyl}-1-methyl-1H-pyrrole-2-carboxamide] | – | – | – | 119 | 119 | inhibition at 10 µM [2]: 92.8%
Nc1ccc2c(c1)C(=O)N(c1ccccc1/C=C/c1n[nH]c3ccccc13)C2=O [Compound 193, (E)-5-amino-2-{2-[2-(1H-indazol-3-yl)vinyl]phenyl}isoindole-1,3-dione] | – | 100 | – | 124 | 167 | –
CN(CCO)c1ccc(/C=C/c2n[nH]c3ccccc23)c(NC(=O)c2cccn2C)c1 [Compound 305, (E)-N-{5-[N-(2-hydroxyethyl)methylamino]-2-[2-(1H-indazol-3-yl)vinyl]phenyl}-1-methyl-1H-pyrrole-2-carboxamide] | – | 100 | – | – | – | inhibition at 1 µM [1, 5]: 118%; inhibition at 1 µM [3, 6]: 110%
Cc1ccsc1C(=O)Nc1cc(C(=O)N2CCN(CCO)CC2)ccc1/C=C/c1n[nH]c2ccccc12 [Compound 281, (E)-N-{5-[4-(2-hydroxyethyl)piperazin-1-ylcarbonyl]-2-[2-(1H-indazol-3-yl)vinyl]phenyl}-3-methylthiophene-2-carboxamide] | 128 | 97.2 | 115 | – | – | –
O=C(Nc1ccccc1/C=C/c1n[nH]c2ccccc12)N1CCOCC1 [Compound 35, (E)-N-{2-[2-(1H-indazol-3-yl)vinyl]phenyl}morpholine-4-carboxamide] | – | 98.4 | – | 110 | 125 | –
CNC1CCN(C(=O)c2ccc(/C=C/c3n[nH]c4ccccc34)c(NC(=O)c3sccc3C)c2)C1 (stereo not drawn) [Compound 283, (E)-N-{2-[2-(1H-indazol-3-yl)vinyl]-5-[3-(methylamino)pyrrolidin-1-ylcarbonyl]phenyl}-3-methylthiophene-2-carboxamide] | 128 | 101 | 116 | – | – | –
O=C(Nc1ccccc1/C=C/c1n[nH]c2ccccc12)c1cccs1 [Compound 14, (E)-N-{2-[2-(1H-indazol-3-yl)vinyl]phenyl}thiophene-2-carboxamide] | – | 96.5 | – | 114 | 110 | –
COc1c(OCCCN(C)CCO)ccc(/C=C/c2n[nH]c3ccccc23)c1NC(=O)c1sccc1C [Compound 347, (E)-N-{3-{3-[(2-hydroxyethyl)methylamino]propoxy}-6-[2-(1H-indazol-3-yl)vinyl]-2-methoxyphenyl}-3-methylthiophene-2-carboxamide] | 116 | 106 | 116 | – | – | –
Cc1ccsc1C(=O)Nc1cc(CN2CCN(CCN3CCOCC3)CC2)ccc1/C=C/c1n[nH]c2ccccc12 [Compound 319] | – | – | – | – | – | cytostatic rate (%) H929 (1 μmol/L) [1, 5]: 122.4%; inhibitory activity (%) at 10 μmol/L [2, 4]: 100.4%; cytostatic rate (%) KMS-11 (1 μmol/L) [3, 6]: 102.6%
COc1c(OCCCN2CCNC(=O)C2)ccc(/C=C/c2n[nH]c3ccccc23)c1NC(=O)c1sccc1C [Compound 341, (E)-N-{6-[2-(1H-indazol-3-yl)vinyl]-2-methoxy-3-[3-(3-oxopiperazin-1-yl)propoxy]phenyl}-3-methylthiophene-2-carboxamide] | – | 105 | – | – | – | inhibition at 1 µM [1, 5]: 120%; inhibition at 1 µM [3, 6]: 124%
Cc1ccsc1C(=O)Nc1cc(C(=O)N2CCCC2)ccc1/C=C/c1n[nH]c2ccccc12 [Compound 116, (E)-N-{2-[2-(1H-indazol-3-yl)vinyl]-5-(pyrrolidin-1-ylcarbonyl)phenyl}-3-methylthiophene-2-carboxamide] | – | – | – | 118 | 114 | inhibition at 10 µM [2]: 103%
COc1c(OCCCN2CCC(O)CC2)ccc(/C=C/c2n[nH]c3ccccc23)c1NC(=O)c1sccc1C [Compound 344, (E)-N-{3-[3-(4-hydroxypiperidin-1-yl)propoxy]-6-[2-(1H-indazol-3-yl)vinyl]-2-methoxyphenyl}-3-methylthiophene-2-carboxamide] | – | 97.4 | – | – | – | inhibition at 1 µM [1, 5]: 133%; inhibition at 1 µM [3, 6]: 117%
CCN(CC)CCCOc1cc(NC(=O)c2sccc2C)c(/C=C/c2n[nH]c3ccccc23)cc1OC [Compound 300, (E)-N-{5-[3-(diethylamino)propyloxy]-2-[2-(1H-indazol-3-yl)vinyl]-4-methoxyphenyl}-3-methylthiophene-2-carboxamide] | 119 | 97.2 | 116 | – | – | –
COc1ccccc1C(=O)Nc1ccccc1/C=C/c1n[nH]c2ccccc12 [Compound 20, (E)-N-{2-[2-(1H-indazol-3-yl)vinyl]phenyl}-2-methoxybenzamide] | – | 97.3 | – | 130 | 107 | –
Cc1ccsc1C(=O)Nc1cc(CN2CCC(S(C)(=O)=O)CC2)ccc1/C=C/c1n[nH]c2ccccc12 [Compound 235, (E)-N-{2-[2-(1H-indazol-3-yl)vinyl]-5-(4-methanesulfonylpiperidin-1-ylmethyl)phenyl}-3-methylthiophene-2-carboxamide] | 115 | 98.3 | 109 | – | – | –
CN(C)c1cccc(C(=O)Nc2ccccc2/C=C/c2n[nH]c3ccccc23)c1 [Compound 27, (E)-3-dimethylamino-N-{2-[2-(1H-indazol-3-yl)vinyl]phenyl}benzamide] | – | 99.3 | – | 119 | 114 | –
CCN(CC)CCNCc1ccc(/C=C/c2n[nH]c3ccccc23)c(NC(=O)c2sccc2C)c1 [Compound 236, (E)-N-{5-[(2-diethylaminoethylamino)methyl]-2-[2-(1H-indazol-3-yl)vinyl]phenyl}-3-methylthiophene-2-carboxamide] | 123 | 99.5 | 139 | – | – | –
Cc1ccsc1C(=O)Nc1cc(CN2CCN(C)C(=O)C2)ccc1/C=C/c1n[nH]c2ccccc12 [Compound 329, (E)-N-{2-[2-(1H-indazol-3-yl)vinyl]-5-(4-methyl-3-oxopiperazine-1-ylmethyl)phenyl}-3-methylthiophene-2-carboxamide] | – | 105 | – | – | – | inhibition at 1 µM [1, 5]: 132%; inhibition at 1 µM [3, 6]: 116%
COCCN(C)Cc1ccc(/C=C/c2n[nH]c3ccccc23)c(NC(=O)c2sccc2C)c1 [Compound 252, (E)-N-{2-[2-(1H-indazol-3-yl)vinyl]-5-[N-(2-methoxyethyl)methylaminomethyl]phenyl}-3-methylthiophene-2-carboxamide] | 120 | 101 | 113 | – | – | –
Cc1ccsc1C(=O)Nc1cc(OCCN2CCOCC2)ccc1/C=C/c1n[nH]c2ccccc12 [Compound 251, (E)-N-{2-[2-(1H-indazol-3-yl)vinyl]-5-[2-(morpholin-4-yl)ethoxy]phenyl}-3-methylthiophene-2-carboxamide] | 112 | 102 | 114 | – | – | –
